From patent US6235891A, “Glucocorticoid receptor agonist and decreased PP5” (South Alabama Medical Science Foundation, priority 1999, dated 2001)

Experiments:
Format in all cases: cell-based, human
A549 cells [1] = assay: [3H]-thymidine incorporation (DNA synthesis) in A549 cells; conditions: 300 nM, all 5 days
Procedure: Cells were pulse-labeled with [^3 H]-thymidine for 5 hours at intervals over the next five days. Cells were lysed and [^3 H]-thymidine incorporation (indicative of DNA synthesis) was determined by liquid scintillation counting.
At timed intervals during the next 5 days, cells were pulse-labeled with [^3 H]-thymidine (0.5 μCi/ml) for 5 hours. […] The results given are the mean of three independent experiments.

PP5 mRNA = assay: Northern blot analysis of PP5 mRNA expression in A549 cells; conditions: doses of 25 to 500 nM
Source text: The oligonucleotides shown in Table 1 were designed using the Genbank sequences HSSERTHRP (Genbank accession number X92121), HSRNAPPP5 (Genbank accession number X89416) and PPP5C (Genbank accession number U25174), synthesized and tested for inhibition of PP5 mRNA expression in A549 cells using a Northern blot assay. All oligonucleotides shown in Table 1 are chimeric oligonucleotides with central 2'-deoxy "gaps," which have phosphorothioate backbones, flanked on both sides by 2'-methoxyethoxy (2'-MOE) "wings" (shown in bold), which have phosphodiester backbones. All cytosines in the 2'-MOE wings are 5-methylcytosines.
In the initial screen, A549 cells were treated with oligonucleotides at a concentration of 300 nM oligonucleotide for four hours in the presence of […] lipofectin. Results were normalized and expressed as a percent of control. The effect of each oligonucleotide on levels of PP5 mRNA, expressed as approximate percent inhibition compared to control, is shown in Table 1. In this initial screen, oligonucleotides giving a reduction of PP5 mRNA of approximately 50% or greater were considered active. […] These sequences (SEQ ID NO: 1, 2, 3, 4, 6, 7 and 12, respectively, SEQ ID Nos shown in bold in Table 1) are therefore preferred.
These oligonucleotides were tested for their ability to reduce PP5 mRNA levels in A549 cells, using oligonucleotide doses of 25 to 500 nM.
The human lung tumor cell line A549 was obtained from the American Type Culture Collection (Rockville Md.) and were grown in DMEM (Gibco BRL, Gaithersburg Md.), supplemented with 10% fetal calf. Cells were seeded on 60 mm plates. When they reached 70% confluency, they were washed with DMEM and 1 ml of DMEM containing 15 μg/ml DOTMA/DOPE (Lipofectin®, GIBCO-BRL) and oligonucleotide at desired concentration was added. Duplicate dishes were used for each treatment condition. After 4 hours of treatment at 37°, cells were washed and cultured in fresh DMEM containing 10% fetal bovine serum for an additional 17 hours. Cells were then harvested and total RNA was extracted with TRIzol Reagent (GIBCO-BRL) according to manufacturer's protocol. Total RNA (20 μg) was fractionated on a 1% agarose gel containing formaldehyde, and transferred to a DURLON-UV (Stratagene) nylon membrane. Following UV crosslinking, the filters were hybridized with the appropriate protein phosphatase probe. The ^32 P-labeled human PP cDNA probes are generated with DECAPrime® DNA Labeling Kit (Ambion) according to the manufacturer's protocol. Hybridization was performed in a hybridization solution containing 50% formamide at 42° for 16 hours. This was followed by two low stringency washes (2×SSC) at room temperature and two high stringency washes (0.1×SSC/0.5% SDS) at 55° C. Hybridization signals were visualized by autoradiography, and filters were then stripped and reprobed with a ^32 P-labeled glyceraldehyde-3-phosphate dehydrogenase (GAPDH) probe to confirm equal loading. The densities of hybridization signals were measured with the NIH Image program (ImagePC).
The cells were harvested, and total RNA was extracted with TRIzol® Reagent according to the methods of the manufacturer. Total RNA (20 μg) was fractionated on 1% agarose gels containing formaldehyde and transferred to DURLON-UV nylon membranes (Stratagene). Following UV cross-linking, the filters were hybridized with a [α^32 P]probe for human PP5. The human PP5 cDNA probe was generated from the full length coding region of PP5 and [α^32 P]-dATP was labeled with DECAprime® DNA Labeling Kit according to the manufacturer's protocol. Hybridization was performed in the presence of 50% formamide, 0.1 M Pipes, 0.8 M NaCl, 5×Denhardt's solution, 100 μg/ml denatured herring sperm DNA, 1×10^6 cpm/ml [α-^32 P]-labeled probe and 10% dextran sulfate at 42° C. for 16 hours. Following hybridization, the membrane was subjected to two low stringency washes (2×SSC) at room temperature and then two high stringency washes (0.1×SSC/0.5% SDS) at 55° C. […]

A549 cells [2] = assay: A549 cell proliferation (viable cell counts); conditions: 300 nM, all 5 days
Procedure: A549 cells were treated with ISIS 15534 or its scrambled control, ISIS 15521 at a concentration of 300 nM. Each day for the next 5 days, viable cells were counted.
A549 cells were seeded in 12-well tissue culture plates at about 50% confluence in DMEM containing 10% fetal bovine serum. The next day, cells were treated with the PP5-specific antisense oligonucleotide, ISIS 15534, or its scrambled control, ISIS 15521, at a final concentration of 300 nM as described in Example 7. On each of the following 5 days, cultures from three wells of each treatment gruop were trypsinized, collected and counted. Cell viability was determined by trypan blue staining, and the results given are the mean of three independent experiments.
A549 cells were seeded in 12-well tissue culture plates at a density of 5.0×10^4 cell/dish. On the next day, the cells were treated with PP5 specific antisense oligonucleotides (ISIS 15534) or the scrambled mismatch control (ISIS 15521) at a final concentration of 300 nM as described above. On each of the next five days, the cell cultures were treated briefly with trypsin to detach the cells from the dish (three wells from each test group). The number of cells was then determined by counting using a hemacytometer. Cell viability was determined with trypan blue staining. The percentage of viable cells was calculated by dividing the number of cells excluding trypan blue by the total number of cells, and the results are reported as the mean +/- SD of data collected from three independent experiments.
The antiproliferative effect of dexamethasone correlates with the presence of wild type p53 and the expression of p21^Waf1/Cip1 mRNA. Referring to FIGS. 1A-1C, the effect of dexamethasone on cell proliferation in p53-defective T-24 human bladder carcinoma, p53-null TR9 human fibroblasts (Webster et al. 1993; Maiyar et al. 1996), and p53 wild-type A549 human lung carcinoma cells was determined by treating cells in log-phase growth with a single dose of 100 nM dexamethasone and counting the number of cells in treated (.cndot.) and untreated (.box-solid.) cultures for six consecutive days following treatment. Each point represents the mean of triplicate dishes with error bars representing SE. Under similar conditions, treatment with ISIS 15534, a potent inhibitor of PP5 gene expression, inhibited growth in A459 but not T-24 or TR9 cells (Zuo et al. 1998). Referring to FIG. 1D, a comparison of p21^Waf1/Cip1 (p21) and serum glucocorticoid inducible protein kinase (sgk) mRNA levels in p53 competent (Lanes 3, 4) and p53 deficient (Lanes 1, 2, 5, 6) cell cultures after dexamethasone treatment is shown. Cell cultures in logphase growth were treated with 100 nM dexamethasone (+) or vehicle alone as a control (-). After 24 hours total mRNA was prepared and analyzed for p21 and sgk mRNA levels by Northern analysis.

“ISIS 15521: mismatch (scrambled) control oligonucleotide, phosphodiester wings, phosphorothioate gap; GTGCGATCGTTGCGGTTAGC, SEQ ID NO: 14 (sugars by position and backbone not given here; phosphodiester wings, phosphorothioate gap) [reference compound]” was tested, and the “[3H]-thymidine incorporation relative to untreated control” value (A549 cells [1]) was “approximately equivalent to untreated control”, the “Inhibition of PP5 mRNA levels at any of the doses tested” value (PP5 mRNA) was ≤ 20% and the “Proliferation relative to untreated control” value (A549 cells [2]) was “approximately equivalent to untreated control”.
